In publication PMC10350923, “In Vitro and In Vivo Biological Activities of Dipicolinate Oxovanadium(IV) Complexes” (Journal of Medicinal Chemistry, 2023):
Values joined by “and” are separate entries in the source; they are usually repeats but may differ in a detail not shown here. Equal entries are not always repeated. Where two headings read alike, the source gives them in different places.

Legend:
[1] = test system: HCT116-DoxR (doxorubicin-resistant colorectal carcinoma cell line); assay: MTS cell viability assay, HCT116-DoxR;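 also: MTS colorimetric quantification of viable cells, with loss of viability tracked as complex concentration rises, in DMEM-grown HCT116-DoxR, a line whose resistance involves P-glycoprotein efflux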
Protocol: (§1) To assess the cytotoxicity of vanadium complexes in tumor and healthy cells, the MTS assay, a colorimetric method that allows the quantification of viable cells present in solution,[71] was performed.
Cell culture and maintenance
(§2) The A2780 cancer cell line (ovarian carcinoma) was purchased from Sigma-Aldrich (Madrid, Spain)
(§3) while HCT116 cancer cell line (colorectal carcinoma) and the normal human primary dermal
(§4) fibroblasts were obtained from American Type Culture Collection (ATCC®, Manassas, VA, USA).
(§5) HCT116 Dox-resistant cell line (HCT116-DoxR) was derived from HCT116 parental cells, as
(§6) All cells were cultured in Dulbecco’s modified Eagle medium (DMEM), except the A2780 cell line
(§7) which was cultured in RPMI (Roswell Park Memorial Institute) medium. Both media were
(§8) supplemented with 10% (v/v) fetal bovine serum (FBS) and 1% (v/v) of a Pen/Strep
(§9) (Penicillin/Streptomycin) solution. HCT116-DoxR cell medium was additionally supplemented with
(§10) All media and supplements were purchased from Thermo Fischer Scientific (Waltham, Massachusetts, USA).
(§11) (SANYO CO2 Incubator, Electric Biomedical Co., Osaka, Japan).
(§12) HCT116, HCT116-DoxR and A2780 cancer cell lines and normal human primary fibroblasts were
(§13) used in cellular viability assays. Cells were seeded in a density of 0.75×10^5 cells/mL into 96 well-
(§14) After the 24 h of incubation, complexes were
(§15) weight and immediately solubilized in 100% (v/v) DMSO and then, diluted for the final concentration
(§16) with cell culture medium. The medium in each 96 well-plates will be replaced by fresh medium
(§17) containing each vanadium complex (concentrations ranging from 0.01 µM to 50 µM). Culture medium
(§18) with 0.1% (v/v) DMSO and 0.4 µM Dox were used as negative and positive controls, respectively.

[2] = test system: normal human primary dermal fibroblasts; assay: MTS cell viability assay, fibroblasts
Protocol: as §1
Cell culture and maintenance
as §2, §3, §4, §5, §6, §7, §8, §9, §10, §11, §12, §13, §14, §15, §16, §17, §18

[3] = test system: A2780 (ovarian carcinoma cell line); assay: MTS cell viability assay, A2780; type: cell-based, human; conditions: 48 h of exposure, mean ± SEM
[4] = n-octanol/PBS buffer partition coefficient, shake-flask, UV-vis; conditions: room temperature
Protocol: The lipophilicity of V(IV) complexes was investigated using the classical shake-flash method at room temperature in the two-phase system of immiscible solvents n-octanol/PBS buffer.[69],[70] The transfer of V(IV) compounds from the aqueous environment to the organic phase was monitored by UV–vis spectroscopy.
The n-octanol/PBS buffer partition coefficients (logP) were determined by shake-flash approach, and
the transfer of V(IV) compounds from the aqueous environment to the organic phase was monitored
by UV-Vis spectroscopy5,6. Solutions of 1–10 of concentrations in the range 10-100 M were prepared
in PBS buffer saturated with n-octanol from the freshly-prepared stock solution in DMSO (5mM or 50
mM), and their UV-Vis spectra were recorded. The solution of 1–10 in aqueous buffer (3 ml) were
mixed with n-octanol saturated with pH 7.4 aqueous buffer (3 ml), and the obtained mixtures were
stirred in a mechanical shaker for 30 min. The mixtures were allowed to stand at room temperature for
24 h, and after this time, the aqueous phases were separated, and the concentrations of 1–10 were
determined by measuring their UV-Vis spectra. For each complex, the highest energy absorption band was taken into consideration to determine the sample concentration.

[5] = test system: HCT116 (colorectal carcinoma cell line); assay: MTS cell viability assay, HCT116; type: cell-based, human; conditions: 48 h of exposure, mean ± SEM
[6] = Homo sapiens, 48 h, read-out: IC50 HCT116-DoxR (ligands)
[7] = Homo sapiens, Fibroblast, 48 h, read-out: IC50 fibroblasts (ligands)
[8] = read-out: IC50 HCT116-DoxR (ligands), free ligands, 48 h of exposure, mean ± SEM
[9] = read-out: IC50 fibroblasts (ligands), free ligands, 48 h of exposure, mean ± SEM
[10] = read-out: IC50 HCT116-DoxR, 48 h of exposure, MTS, mean ± SEM
[11] = read-out: IC50 fibroblasts, 48 h of exposure, MTS, mean ± SEM

Compound `COc1ccnc2c1ccc1c(OC)ccnc12` [4,7-(CH3O)2-phen, 4,7-dimethoxy-1,10-phenanthroline] has an IC50 [1, 6] of 0.3 ± 0.05 µM and an IC50 [2, 7] of 10 ± 0.01 µM.

For `c1ccc2c(c1)Sc1ccccc1N2c1ccnc2c1ccc1c(N3c4ccccc4Sc4ccccc43)ccnc12` [4,7-(phtiaz)2-phen, 4,7-phenothiazine-1,10-phenanthroline], the IC50 [1, 8] was > 50 µM and the IC50 [2, 9] was > 50 µM.

For `Clc1ccnc2c1ccc1c(Cl)ccnc12` [4,7-Cl2-phen, 4,7-dichloro-1,10-phenanthroline], the IC50 [1, 6] was 16.4 ± 0.01 µM and the IC50 [2, 7] was 17.5 ± 0.07 µM.

With `c1ccc(-c2ccnc3c2ccc2c(-c4ccccc4)ccnc23)cc1` [4,7-Ph2-phen, 4,7-diphenyl-1,10-phenanthroline] the IC50 [1, 6] was 0.3 ± 0.02 µM and the IC50 [2, 7] was 4.4 ± 0.13 µM.

In the case of `c1ccc(-c2ccccn2)nc1` [Bipy, 2,2′-bipyridine], the IC50 [1, 6] is reported as > 50 µM and the IC50 [2, 7] is reported as > 50 µM.

In the case of `O=C(O)c1cccc(C(=O)O)n1` [Dipic, dipicolinate], the IC50 [1, 8] is reported as > 50 µM and the IC50 [2, 9] is reported as > 50 µM.

For `c1cnc2c(c1)ccc1cccnc12` [Phen, 1,10-phenanthroline], the IC50 [1, 6] was 1.6 ± 0.03 µM and the IC50 [2, 7] was > 50 µM.

In the case of `c1ccc(-c2nc3ccccc3[nH]2)nc1` [Pybim, 2-(2-pyridyl)benzimidazole], the IC50 [1, 6] is reported as 27.1 ± 0.04 µM and the IC50 [2, 7] is reported as ~50 µM.

For `c1ccc(-c2ncc[nH]2)nc1` [Pyim, 2-(1H-imidazol-2-yl)pyridine], the IC50 [1, 6] was > 50 µM and the IC50 [2, 7] was > 50 µM.

For `CC(C)(C)OO` [TBHP, tert-butyl hydroperoxide, reference compound], the IC50 ([1]; Homo sapiens, 48 h, read-out: IC50 HCT116-DoxR) was 42 µM.

With `O=C1[O][V](=[O])[O]C(=O)c2cccc1n2.c1ccc(-c2ncc[nH]2)nc1` [complex 1, [VO(dipic)(pyim)]] the IC50 [3] was 15 ± 0.02 µM, the IC50 [1, 10] was > 50 µM and the “log P” value [4] was “–0.04”. For the same compound, the IC50 [2, 11] was 20.2 ± 0.04 µM and the IC50 [5] was > 50 µM.

For `O=C1[O][V](=[O])[O]C(=O)c2cccc1n2.c1ccc(-c2nc3ccccc3[nH]2)nc1` [complex 2, [VO(dipic)(pybim)]], the IC50 [3] was 6.7 ± 0.02 µM, the IC50 [1, 10] was 31.4 ± 0.03 µM and the “log P” value [4] was “–0.10”. The IC50 [2, 11] was 15.7 ± 0.04 µM and the IC50 [5] was > 50 µM.

For `O=C1C(=O)c2cccnc2-c2ncccc21.O=C1[O][V](=[O])[O]C(=O)c2cccc1n2` [complex 3, [VO(dipic)(phendione)]], the IC50 [3] was 0.2 ± 0.02 µM, the IC50 [1, 10] was 1.3 ± 0.07 µM and the “log P” value [4] was “–0.16”. The IC50 [2, 11] was 0.7 ± 0.02 µM.

For `Clc1ccnc2c1ccc1c(Cl)ccnc12.O=C1[O][V](=[O])[O]C(=O)c2cccc1n2` [complex 4, [VO(dipic)(4,7-Cl2-phen)]], the IC50 [3] was 2.2 ± 0.02 µM, the IC50 [1, 10] was ~9 µM and 9 µM and the “log P” value [4] was 0.44. It also gave an IC50 [2, 11] of 9.2 ± 0.01 µM and an IC50 [5] of 8.8 ± 0.02 µM.

For `O=C1[O][V](=[O])[O]C(=O)c2cccc1n2.c1ccc2c(c1)Sc1ccccc1N2c1ccnc2c1ccc1c(N3c4ccccc4Sc4ccccc43)ccnc12` [complex 7, [VO(dipic)(4,7-(phtiaz)2-phen)]], the IC50 [3] was 3.1 ± 0.03 µM, the IC50 [1, 10] was > 50 µM and the “log P” value [4] was 0.62. For the same compound, the IC50 [2, 11] was 21.7 ± 0.08 µM and the IC50 [5] was > 50 µM.

With `O=C1[O][V](=[O])[O]C(=O)c2cccc1n2.c1ccc(-c2ccccn2)nc1` [complex 9, [VO(dipic)(bipy)]] the IC50 [3] was 4.8 ± 0.02 µM, the IC50 [1, 10] was 39.2 ± 0.09 µM and the “log P” value [4] was 0.13. For the same compound, the IC50 [2, 11] was 16.2 ± 0.04 µM and the IC50 [5] was 44 ± 0.04 µM.

For `O=C1[O][V](=[O])[O]C(=O)c2cccc1n2.c1c[nH]cn1.c1c[nH]cn1` [complex 10, [VO(dipic)(im)2]], the IC50 [3] was 14.7 ± 0.02 µM, the IC50 [1, 10] was > 50 µM and the “log P” value [4] was “–1.28”. For the same compound, the IC50 [2, 11] was 20.1 ± 0.05 µM and the IC50 [5] was > 50 µM.

With `O=C1C(=O)c2cccnc2-c2ncccc21` [phendione] the IC50 [1, 6] was 0.7 ± 0.01 µM and the IC50 [2, 7] was 1.8 ± 0.05 µM.
